Source: patent publication US10947188B2, “Small molecule ferroptosis inducers” (THE TRUSTEES OF COLUMBIA UNIVERSITY IN THE CITY OF NEW YORK, priority 2016, dated 2021)

Tested on: BJeLR
Test: Modulatory profiling: Alamar Blue viability, lethal compound cotreated with death modulator (EC50, AUC)
Assay type: cell-based, human
Parameters: AUC, modulator BJ.Gd3+ / AUC, modulator BJ.LNAME / AUC, modulator BJ.Lmin / AUC, modulator BJ.3MA / AUC, modulator BJ.ALLN / AUC, modulator BJ.Boc D / AUC, modulator BJ.CHX / AUC, modulator BJ.Co2+ / AUC, modulator BJ.Nec-1 / AUC, modulator BJ.Pepstatin / AUC, modulator BJ.TLCK / AUC, modulator BJ.atoc / AUC, modulator BJ.trolox / AUC, modulator BJ.zVAD: unit not given beside the values
Conditions: for AUC, modulator BJ.3MA / AUC, modulator BJ.ALLN / AUC, modulator BJ.Boc D / AUC, modulator BJ.CHX / AUC, modulator BJ.Co2+ / AUC, modulator BJ.DPQ / AUC, modulator BJ.Gd3+ / AUC, modulator BJ.LNAME / AUC, modulator BJ.Lmin/NAD+ / AUC, modulator BJ.Lmin / AUC, modulator BJ.NAD+ / AUC, modulator BJ.NMMA / AUC, modulator BJ.Nec-1 / AUC, modulator BJ.Pepstatin / AUC, modulator BJ.TLCK / AUC, modulator BJ.atoc / AUC, modulator BJ.trolox / AUC, modulator BJ.zVAD: BJeLR cells, modulatory profile value (AUC); for AUC, modulator BJ.3MA: lethal compound cotreated with modulator 3MA; for AUC, modulator BJ.ALLN: lethal compound cotreated with modulator ALLN; for AUC, modulator BJ.Boc D: lethal compound cotreated with modulator Boc D; for AUC, modulator BJ.CHX: lethal compound cotreated with modulator CHX; for AUC, modulator BJ.Co2+: lethal compound cotreated with modulator Co2+; for AUC, modulator BJ.DPQ: lethal compound cotreated with modulator DPQ; for AUC, modulator BJ.Gd3+: lethal compound cotreated with modulator Gd3+; for AUC, modulator BJ.LNAME: lethal compound cotreated with modulator LNAME; for AUC, modulator BJ.Lmin/NAD+: lethal compound cotreated with modulator Lmin/NAD+; for AUC, modulator BJ.Lmin: lethal compound cotreated with modulator Lmin; for AUC, modulator BJ.NAD+: lethal compound cotreated with modulator NAD+; for AUC, modulator BJ.NMMA: lethal compound cotreated with modulator NMMA; for AUC, modulator BJ.Nec-1: lethal compound cotreated with modulator Nec-1; for AUC, modulator BJ.Pepstatin: lethal compound cotreated with modulator Pepstatin; for AUC, modulator BJ.TLCK: lethal compound cotreated with modulator TLCK; for AUC, modulator BJ.atoc: lethal compound cotreated with modulator atoc; for AUC, modulator BJ.trolox: lethal compound cotreated with modulator trolox; for AUC, modulator BJ.zVAD: lethal compound cotreated with modulator zVAD; for EC50: Homo sapiens, BJeLR, 48 h
[1] = cotreated with antioxidant Trolox
[2] = cotreated with antioxidant atoc
[3] = cotreated with iron-chelator Lmim

SMILES	AUC, modulator BJ.3MA	AUC, modulator BJ.ALLN	AUC, modulator BJ.Boc D	AUC, modulator BJ.CHX	AUC, modulator BJ.Co2+	AUC, modulator BJ.DPQ	AUC, modulator BJ.Gd3+	AUC, modulator BJ.LNAME	AUC, modulator BJ.Lmin/NAD+	AUC, modulator BJ.Lmin	AUC, modulator BJ.NAD+	AUC, modulator BJ.NMMA	AUC, modulator BJ.Nec-1	AUC, modulator BJ.Pepstatin	AUC, modulator BJ.TLCK	AUC, modulator BJ.atoc	AUC, modulator BJ.trolox	AUC, modulator BJ.zVAD	other results
CCCCNc1cc(C)nc(NCc2ccccc2)n1 [CIL18]	0.0654	−0.04507	−0.01841	−0.01582	0.08943	−0.01318	−0.01659	−0.01628	−0.0502	−0.05505	0.00749	−0.02371	0.0226	0.04724	−0.03824	−0.0004228	0.0395	−0.005402	–
COc1cccc(-n2nnnc2S(C)(=O)=O)c1 [CIL16]	0.05064	−0.03491	−0.04692	0.01221	0.07207	−0.01732	−0.02506	−0.01278	−0.05229	−0.02238	−0.02177	−0.01938	0.06903	0.02481	−0.02516	−0.03351	0.003689	−0.006166	–
COc1nn(-c2ccccc2)c(=O)c(Cl)c1Cl [CIL23]	−0.01613	−0.04561	−0.01959	−0.02303	−0.01594	0.004379	0.03265	−0.02129	0.004125	−0.01617	0.005104	−0.01242	0.03269	−0.001663	−0.007806	0.002315	−0.02152	0.04691	–
COc1cccc2c1C(=O)c1c(O)c3c(c(O)c1C2=O)C[C@@](O)(C(=O)CO)C[C@@H]3O[C@H]1C[C@H](N)[C@H](O)[C@H](C)O1 [Doxorubicin]	0.03113	0.01555	0.04966	0.1412	0.1971	0.004462	−0.01105	0.01382	0.1477	0.05475	0.1339	−0.007486	−0.003677	0.01775	0.03307	0.01689	0.01164	0.05543	–
COC(=O)[C@@H]1Cc2c([nH]c3ccccc23)C(C)(C)N1C(=O)CCl [CIL79]	0.0798	0.02717	0.02938	−0.04651	0.1763	0.003967	0.00956	0.01544	0.2136	0.2049	−0.00637	−0.008594	0.2258	0.04063	0.1984	–	–	–	EC50 (DMSO): 157 nM; EC50 (cotreated with Lmim_NAD): 566 nM; EC50 [1]: 8320 nM; EC50 [2]: 7930 nM; EC50 [3]: 667 nM
CCCCNc1c(Cl)cnn(-c2ccccc2)c1=O [CIL36]	0.06295	−0.03236	−0.0473	−0.03087	−0.03647	0.1393	0.01469	0.0008728	−0.09403	0.02336	−0.01826	0.03927	−0.1729	−0.01891	−0.04337	0.06822	−0.02322	0.00966	–
OCCNCC(O)Cn1c2ccc(Br)cc2c2cc(Br)ccc21 (stereo not shown) [CIL7]	0.09188	−0.02876	−0.04946	−0.01056	0.09999	0.06721	−0.01897	−0.03182	0.01771	0.01256	0.009046	−0.01533	0.02534	0.06231	−0.02373	0.0008495	0.0424	−0.05834	–
Cc1cccnc1Nc1nc(-c2ccccn2)cs1 [CIL13]	0.09083	−0.03933	−0.02989	−0.1264	0.5287	0.007392	0.04263	0.01544	−0.05456	−0.03412	0.01378	−0.03177	0.04738	0.03784	0.3412	−0.005646	−0.006649	−0.004568	–
CCc1ccc(/C=C2/SC(=O)N(CCC(C)NCCCN3CCOCC3)C2=O)cc1 (stereo not shown) [CIL46]	0.1884	−0.01374	−0.005903	0.1598	−0.1389	0.03979	−0.05606	−0.02185	0.1825	0.2583	−0.02371	0.03363	0.08455	−0.01313	−0.09715	0.1051	0.04647	−0.05153	–
CC1=CC(C)(C)Nc2ccc(OC(=O)c3cccnc3)cc21 [CIL47]	0.1505	−0.02628	0.05397	−0.0269	−0.1379	0.06122	−0.02875	−0.02479	−0.01437	−0.01696	−0.06356	0.04023	−0.02203	0.05454	−0.03768	0.03519	−0.02806	−0.01497	–
O=C(CCl)N(c1ccccc1)c1c[nH]c2ccccc12 [CIL69]	0.07713	−0.0005222	−0.003228	−0.03495	0.1724	0.02521	0.02983	0.005201	0.1449	0.1799	0.02203	−0.02133	0.1721	0.0531	0.1963	–	–	–	EC50 (DMSO): 193 nM; EC50 (cotreated with Lmim_NAD): 889 nM; EC50 [1]: 2050 nM; EC50 [2]: 1780 nM; EC50 [3]: 976 nM
CC(C)C[C@H](NC(=O)[C@H](Cc1ccccc1)NC(=O)c1cnccn1)B(O)O [Bortezomib]	0.001928	−0.1031	0.03032	0.2984	0.2379	−0.007392	−0.03227	−0.008649	0.1491	0.09993	0.05175	−0.0002968	0.002293	0.000698	0.07108	0.01647	0.01237	0.005086	–
COC(=O)c1ccc([C@@H]2c3[nH]c4ccccc4c3C[C@@H](C(=O)OC)N2C(=O)CCl)cc1 [RSL3, reference compound]	0.09104	0.01266	0.03832	0.1841	0.1091	0.03115	0.02448	0.02932	0.3858	0.3462	0.04136	0.007806	0.2379	−0.0008093	0.2732	0.3601	0.3731	0.00586	–
O=P(Oc1ccccc1)(Oc1ccccc1)O[C@@H]1C=CS(=O)(=O)C1 [CIL44]	0.05756	−0.0588	−0.03963	0.1553	0.02387	0.05604	0.005556	0.008981	−0.04975	0.03065	−0.04167	0.02894	−0.01119	0.002455	−0.03963	0.009119	−0.03989	−0.01682	–
